Assay results from patent publication US10265321B2, “Uses of salt-inducible kinase (SIK) inhibitors” (Dana-Farber Cancer Institute, Inc., priority 2014, dated 2019).

What was measured:
[1] = molecular target: T1, SIK1 (Homo sapiens, UniProt P57059); test: Protein kinase assay ([γ-32P] ATP, phosphocellulose paper) against SIK1; assay type: biochemical; settings: 1 μM; DMSO set to 100%; read-out: Activity of protein kinase treated with 1 μM of I-1 (% control (DMSO)) SIK1
T1 construct: made in house
Method: Bone marrow-derived DCs were differentiated from C57BL/6 bone marrow in the presence of GM-CSF-conditioned media. CD11c^+ CX3CR1^hi myeloid cells and CD11c^+ CX3CR1^− DCs were isolated from the small intestine lamina propria of Cx3cr1^eGFP/+ mice (12). Detection of cell-surface Thy1.1 expression on BMDCs from 10BiT reporter mice was conducted as described previously (24). Cell viability was estimated by change in total cellular ATP levels using CellTiterGlo assays (Promega). Preparation of recombinant SIK proteins and IC50 measurements were conducted as described previously (21). […] The concentrations of TNF-α, IL-6, IL-10, IL-12p40, IL-1β and RANTES in culture supernatants were detected using a FlexSet Cytometric bead array (BD Biosciences). Alternatively, IL-10 secretion was quantified using ELISA (BD Biosciences) or AlphaLISA (PerkinElmer) assays. […]
In another set of experiments, the activities of the SIK inhibitors described herein against SIK were determined according to the methods reported in Hastie et al., Nature Protocols, 2006, 1, 968-971. […]
The specific activity of the [γ-^32P] […] To measure the concentration of ATP, a sample of such a stock solution was diluted to 20 μM, and the absorbance of the diluted sample was measured at 259 nm. The absorbance of a 20-μM stock solution of ATP at 259 nm was about 0.31. […] ATP to produce a radioactivity of 1×10^5 to 1×10^6 c.p.m. per nmol. […]

[2] = molecular target: T2, SIK2 (Homo sapiens, UniProt Q9H0K1); test: Protein kinase assay ([γ-32P] ATP, phosphocellulose paper) against SIK2; assay type: biochemical; settings: for IC50: read-out: Enzyme Inhibition IC50 SIK2
T2 construct: made in house
Method: (§1) Bone marrow-derived DCs were differentiated from C57BL/6 bone marrow in the presence of GM-CSF-conditioned media. CD11c^+ CX3CR1^hi myeloid cells and CD11c^+ CX3CR1^− DCs were isolated from the small intestine lamina propria of Cx3cr1^eGFP/+ mice (12). Detection of cell-surface Thy1.1 expression on BMDCs from 10BiT reporter mice was conducted as described previously (24). Cell viability was estimated by change in total cellular ATP levels using CellTiterGlo assays (Promega). Preparation of recombinant SIK proteins and IC50 measurements were conducted as described previously (21). Total RNA was extracted using a NucleoSpin 96 RNA isolation kit (Macherey-Nagel) followed by cDNA synthesis and multiplex RT-PCR using a microfluidic dynamic array (Fluidigm). The concentrations of TNF-α, IL-6, IL-10, IL-12p40, IL-1β and RANTES in culture supernatants were detected using a FlexSet Cytometric bead array (BD Biosciences). Alternatively, IL-10 secretion was quantified using ELISA (BD Biosciences) or AlphaLISA (PerkinElmer) assays. NO production was estimated based on nitrate content in culture medium using the Greiss reagent.
(§2) In another set of experiments, the activities of the SIK inhibitors described herein against SIK were determined according to the methods reported in Hastie et al., Nature Protocols, 2006, 1, 968-971.
(§3) This buffer consisted of 50 mM Tris-HCl, pH 7.5, 0.1 mM EGTA, 1 mg ml^−1 bovine serum albumin and 0.1% (vol/vol) 2-mercaptoethanol.
(§4) An assay buffer of 500 mM Tris-HCl, pH 7.5, 1 mM EGTA, and 100 mM magnesium acetate was used for the protein kinase assay.
(§5) The specific activity of the [γ-^32P] ATP solution was 1×10^5 to 1×10^6 c.p.m. per nmol depending on what was needed to produce an optimal signal/noise ratio. Stocks of nonradioactive (“cold”) ATP were dissolved in 10 mM HEPES, and the pH of the resulting stock solutions was adjusted to 7.4. To measure the concentration of ATP, a sample of such a stock solution was diluted to 20 μM, and the absorbance of the diluted sample was measured at 259 nm. The absorbance of a 20-μM stock solution of ATP at 259 nm was about 0.31. The 1-mM solution of cold ATP was “spiked” with [γ-^32P] ATP to produce a radioactivity of 1×10^5 to 1×10^6 c.p.m. per nmol.
(§6) 1) The number of assay samples needed was determined based on, e.g., the following considerations: (i) each condition was assayed in duplicate; (ii) two controls containing peptide or protein substrate and ATP but no SIK were included to assess contamination by any free ATP not incorporated into substrate, alongside two controls lacking a peptide or protein substrate but containing ATP and SIK to correct for any incorporation of phosphate into the kinase itself (e.g., autophosphorylation); and (iii) a maximum of 40 samples were assayed manually at one time by a single person. Microcentrifuge tubes were label distinctly and were placed on ice.
(§7) 4) Dilute the SIK in enzyme dilution buffer and place on ice.
(§8) 5) Pipette 5 j±l of 10× concentrated assay buffer, 5 j±l peptide or protein substrate (the two “no-substrate” control tubes had 5 j±l water added instead of peptide or protein substrate), and 30 μl distilled water into each tube. Keep the tubes on ice.
(§9) 6) Add 5 μl diluted SIK to each tube, except for the two “no-enzyme” control tubes, which had 5 μl enzyme dilution buffer added, and still keeping the tubes on ice. In some cases, premixed “cocktails” of assay components were prepared containing peptide or protein substrate, assay buffer, and distilled water to limit the number of additions to each assay tube. Each of steps 7 to 14 was done behind a plexiglass shield.
(§10) 7) Insert each tube into the water bath at intervals of 15 s to allow the assay mixture to reach 30° C. Begin the SIK reactions by adding 5 μl of 1 mM [γ-^32P] ATP to each tube at intervals of 15 s. Close each tube, vortex for 1 s to mix the contents and immediately replace in a rack in the water bath. Incubate for 10 min at 30° C. […]

[3] = molecular target: T3, SIK3 (Homo sapiens, UniProt Q9Y2K2); test: Protein kinase assay ([γ-32P] ATP, phosphocellulose paper) against SIK3; assay type: biochemical; settings: read-out: Enzyme Inhibition IC50 SIK3
T3 construct: made in house
Method: as §1, §2, §3, §4, §5, §6, §7, §8, §9, §10

[4] = system: BMDCs; test: Cell viability of BMDCs (CellTiter-Glo, cellular ATP); assay type: cell-based, mouse; settings: for EC50: Mus musculus, BMDC, zymosan-stimulated BMDCs, read-out: Viability loss EC50
Method: as §1
(§11) BMDCs were seeded into black 384-well plates (Corning) at 20,000 cells/well in 40 μL complete DMEM using a Multidrop COMBI (Thermal Scientific) followed by incubation at 37° C. for 2 hr to allow for plate adherence. SIK inhibitors (100 nL/well) were pin-transferred from concentrated DMSO stocks using CyBi-Well Vario (CyBio) into duplicate plates. For each treatment plate, 32 out of 384 wells were pinned with DMSO as negative control and 32 out of 384 wells were pinned with PGE2 (5 μM final concentration). Two days after SIK inhibitor treatment, BMDCs were stimulated with zymosan (4 μg/mL final concentration) dispersed in culture medium (20 μL/well) using a Multidrop COMBI. After 18 hr, 5 μL of resulting supernatant was transferred from the culture plate to white 384-well AlphaLISA plates (Perkin Elmer) using a CyBi-Well Vario. IL-10 abundance in the supernatants was determined using an AlphaLISA assay (PerkinElmer) according to the manufacture's protocol and signal intensity measured using an EnVision multimode plate reader. SIK inhibitor activity was expressed as a % of the differences between the mean abundance of IL-10 in PGE2 versus DMSO wells on a per plate basis. Cell viability assays were conducted on the same tissue culture plates as the IL-10 assay. First media was removed and replaced by solution of 50% (vol/vol) CellTiter-Glo (Promega) in PBS. Luminescence was read using an Envision multimode plate reader, and signal intensity calculated relative to DMSO control wells on a per plate basis.

[5] = system: IL-10 production by zymosan-stimulated BMDCs; test: IL-10 up-regulation in zymosan-stimulated BMDCs (AlphaLISA/ELISA); assay type: cell-based, mouse; settings: for EC50: Mus musculus, BMDC, read-out: IL-10 induction EC50; for effect on IL-10 production by BMDCs (in words): kinase inhibitor screen / PGE2 control
Method: as §1
(§12) C57BL/6 mice were euthanized and bone marrow harvested from femurs and tibias as described previously (Graham D B, et al. (2007) An ITAM-signaling pathway controls cross-presentation of particulate but not soluble antigens in dendritic cells. The Journal of experimental medicine 204(12):2889-2897). BMDCs were differentiated DMEM supplemented with 2 mM GlutaMAX, 10% (vol/vol) FBS, penicillin, streptomycin and 2% mouse GM-CSF conditioned media derived from TOPO cells. Cultures were differentiated for 7 days and routinely analyzed for >90% CD11c (APC anti-CD11c clone HL3; BD Biosciences) positivity by flow cytometry before use in experiments. Lentiviral transduction of bone marrow cultures was conducted by addition of 293T culture supernatants containing lentiviral particles encoding the CREB dependent luciferase reporter construct or CRTC3 targeting or control shRNAs one day post-isolation. Stable integration of lentiviral shRNA constructs was selected by addition of puromycin (3 μg/mL) on day 4 post-transduction. After 2 days, stably transduced BMDCs were released from selection and used in subsequent assays. Unless otherwise indicated, cells were treated for 2 days with PGE2 (5 μM) or HG-9-91-01 (0.5 μM) or an equivalent concentration of DMSO (≤0.5%) and then stimulated for 18 hr with LPS (100 ng/mL), R848 (10 μg/mL) or zymosan (4 μg/mL).
as §11, with “Luminescence was read using an Envision multimode plate reader, and signal intensity calculated relative to DMSO control wells on a per plate basis.” left out

[6] = system: BMDCs; test: Multiplex qPCR of transcripts in stimulated BMDCs; assay type: cell-based, mouse; settings: 2 days pre-treatment, 4 hr LPS, R848 or zymosan
Method: as §1
as §12, with “Unless otherwise indicated, cells were treated for 2 days with PGE2 (5 μM) or HG-9-91-01 (0.5 μM) or an equivalent concentration of DMSO (≤0.5%) and then stimulated for 18 hr with LPS (100 ng/mL), R848 (10 μg/mL) or zymosan (4 μg/mL).” left out
Total RNA was extracted using a NucleoSpin 96 RNA isolation kit (Macherey-Nagel). […] Relative gene expression was calculated from Ct values and normalized against ACTB mRNA levels as described previously (Pfaffl MW (2001) A new mathematical model for relative quantification in real-time RT-PCR. Nucleic acids research 29(9):e45). […]

[7] = system: BMDCs; test: Cytokine (cytometric bead array) and NO (Greiss) production by stimulated BMDCs; assay type: cell-based, mouse
Method: as §1, §12
After stimulation of cells with microbial ligands, the culture medium was removed, clarified by centrifugation for 10 min at 14,000×g, and the concentration of TNF-α, IL-6, IL-10, IL-12p40, IL-1β and RANTES were measured using FlexSet Cytokine Bead Array (BD Biosciences) according to the manufacturer's instructions. Where indicated, ELISAs were used to detect IL-10 and IL-12p70 (BD Biosciences) according to the manufacturer's instructions. NO production was estimated based on nitrate content in culture medium using the Greiss reagent as described previously (Miletic A V, et al. (2007) Vav proteins control MyD88-dependent oxidative burst. Blood 109(8):3360-3368).

T3 sequence (Q9Y2K2 whole entry): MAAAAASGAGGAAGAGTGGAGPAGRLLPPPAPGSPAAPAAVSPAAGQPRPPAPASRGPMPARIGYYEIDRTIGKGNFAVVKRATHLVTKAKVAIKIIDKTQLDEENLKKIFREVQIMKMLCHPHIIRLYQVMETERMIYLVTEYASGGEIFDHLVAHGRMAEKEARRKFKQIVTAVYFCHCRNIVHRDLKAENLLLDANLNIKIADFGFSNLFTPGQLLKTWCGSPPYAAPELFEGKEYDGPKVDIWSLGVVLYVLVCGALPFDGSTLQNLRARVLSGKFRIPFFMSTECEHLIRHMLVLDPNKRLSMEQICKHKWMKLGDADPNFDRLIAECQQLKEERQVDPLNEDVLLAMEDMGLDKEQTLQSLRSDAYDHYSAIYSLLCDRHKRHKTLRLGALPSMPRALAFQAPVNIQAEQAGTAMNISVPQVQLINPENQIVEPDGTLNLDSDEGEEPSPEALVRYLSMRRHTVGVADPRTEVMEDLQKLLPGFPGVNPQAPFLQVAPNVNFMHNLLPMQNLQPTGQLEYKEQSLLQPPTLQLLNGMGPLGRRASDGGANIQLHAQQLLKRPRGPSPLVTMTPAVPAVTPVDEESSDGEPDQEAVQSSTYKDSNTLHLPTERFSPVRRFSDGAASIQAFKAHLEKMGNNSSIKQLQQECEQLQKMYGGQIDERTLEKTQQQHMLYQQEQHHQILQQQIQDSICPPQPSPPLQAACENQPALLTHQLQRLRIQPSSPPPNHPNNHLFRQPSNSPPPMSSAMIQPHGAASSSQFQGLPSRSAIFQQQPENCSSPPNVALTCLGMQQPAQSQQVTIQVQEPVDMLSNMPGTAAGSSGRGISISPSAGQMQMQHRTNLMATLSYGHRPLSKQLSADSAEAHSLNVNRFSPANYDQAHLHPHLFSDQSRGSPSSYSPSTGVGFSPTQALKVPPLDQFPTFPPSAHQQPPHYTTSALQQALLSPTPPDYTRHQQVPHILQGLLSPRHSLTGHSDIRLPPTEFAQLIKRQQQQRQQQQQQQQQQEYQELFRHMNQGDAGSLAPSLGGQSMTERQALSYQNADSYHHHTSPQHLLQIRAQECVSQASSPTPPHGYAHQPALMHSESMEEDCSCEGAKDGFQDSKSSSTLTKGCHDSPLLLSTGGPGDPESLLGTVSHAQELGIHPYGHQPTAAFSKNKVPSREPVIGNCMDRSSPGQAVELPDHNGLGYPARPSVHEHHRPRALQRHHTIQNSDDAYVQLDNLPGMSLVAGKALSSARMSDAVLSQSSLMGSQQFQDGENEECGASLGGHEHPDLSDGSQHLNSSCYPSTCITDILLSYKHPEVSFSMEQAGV
T2 sequence (Q9H0K1 whole entry): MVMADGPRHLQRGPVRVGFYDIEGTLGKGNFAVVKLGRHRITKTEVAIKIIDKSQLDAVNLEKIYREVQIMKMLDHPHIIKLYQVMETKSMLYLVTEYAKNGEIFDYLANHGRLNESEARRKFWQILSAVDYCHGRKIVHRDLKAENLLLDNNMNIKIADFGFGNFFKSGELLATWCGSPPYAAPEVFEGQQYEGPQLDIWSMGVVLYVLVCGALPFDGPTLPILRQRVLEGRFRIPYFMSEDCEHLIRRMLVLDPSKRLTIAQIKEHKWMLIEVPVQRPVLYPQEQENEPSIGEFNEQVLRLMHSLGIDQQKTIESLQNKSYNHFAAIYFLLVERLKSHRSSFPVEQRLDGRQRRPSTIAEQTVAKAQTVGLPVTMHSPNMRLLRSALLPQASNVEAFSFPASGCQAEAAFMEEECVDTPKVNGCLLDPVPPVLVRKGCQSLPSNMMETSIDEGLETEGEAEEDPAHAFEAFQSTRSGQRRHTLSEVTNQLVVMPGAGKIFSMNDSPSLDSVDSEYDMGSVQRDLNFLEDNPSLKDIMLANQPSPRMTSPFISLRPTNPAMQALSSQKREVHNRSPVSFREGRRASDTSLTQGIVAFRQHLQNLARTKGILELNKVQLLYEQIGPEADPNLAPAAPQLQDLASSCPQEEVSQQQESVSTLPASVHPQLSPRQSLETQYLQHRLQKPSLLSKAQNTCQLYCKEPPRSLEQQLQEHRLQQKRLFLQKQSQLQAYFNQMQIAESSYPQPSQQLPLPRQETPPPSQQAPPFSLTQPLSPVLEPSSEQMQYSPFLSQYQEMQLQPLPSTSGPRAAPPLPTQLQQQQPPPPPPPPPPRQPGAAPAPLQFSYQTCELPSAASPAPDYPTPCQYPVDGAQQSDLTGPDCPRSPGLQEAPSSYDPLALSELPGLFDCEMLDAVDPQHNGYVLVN
T1 sequence (P57059 whole entry): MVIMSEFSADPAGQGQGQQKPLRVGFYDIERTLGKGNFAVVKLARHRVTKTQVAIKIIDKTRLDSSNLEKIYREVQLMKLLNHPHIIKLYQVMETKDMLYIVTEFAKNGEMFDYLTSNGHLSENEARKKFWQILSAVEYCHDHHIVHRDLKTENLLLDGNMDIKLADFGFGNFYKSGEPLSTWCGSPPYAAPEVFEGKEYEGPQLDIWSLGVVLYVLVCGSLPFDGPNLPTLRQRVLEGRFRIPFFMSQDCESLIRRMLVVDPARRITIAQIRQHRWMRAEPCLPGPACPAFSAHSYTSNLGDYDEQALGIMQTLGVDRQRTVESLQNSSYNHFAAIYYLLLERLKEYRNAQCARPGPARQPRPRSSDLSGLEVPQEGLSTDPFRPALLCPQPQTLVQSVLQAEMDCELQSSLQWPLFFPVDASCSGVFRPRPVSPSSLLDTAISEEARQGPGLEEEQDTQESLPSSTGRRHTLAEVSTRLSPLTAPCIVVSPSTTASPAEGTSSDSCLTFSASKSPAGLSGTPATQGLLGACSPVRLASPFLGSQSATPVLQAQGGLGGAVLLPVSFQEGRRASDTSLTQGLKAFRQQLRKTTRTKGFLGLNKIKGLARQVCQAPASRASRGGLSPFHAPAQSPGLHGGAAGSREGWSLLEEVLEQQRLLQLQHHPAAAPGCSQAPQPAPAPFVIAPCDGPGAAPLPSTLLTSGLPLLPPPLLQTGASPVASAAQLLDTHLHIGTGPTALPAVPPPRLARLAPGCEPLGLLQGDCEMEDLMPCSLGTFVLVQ

Work on `CCN1CCN(CCOc2ccc3cc2COC/C=C/CN(C(=O)Oc2c(C)cccc2C)c2ccnc(n2)N3)CC1` [I-2] yielded a remaining activity at 1 µM [1] of 15.9%, a remaining activity at 1 µM ([2]; 1 μM, DMSO set to 100%, read-out: Activity of protein kinase treated with 1 μM of I-1 (% control (DMSO)) SIK2) of 15% and an IC50 [2] of 87.8 nM. For the same compound, the IC50 [3] was 445 nM and the EC50 [4] was 6.58 µM.
In the case of `Cc1cccc(C)c1OC(=O)N1C/C=C\COCc2cc(ccc2OCCN2CCC(O)CC2)Nc2nccc1n2` [I-5], the IC50 [2] is reported as 12 nM, the IC50 [3] is reported as 73.7 nM and the EC50 ([5]; zymosan-stimulated BMDCs) is reported as 23.8 µM. It also gave an EC50 [4] of 6.12 µM.
In the case of `COc1cc(N2CCC(N3CCN(C)CC3)CC2)ccc1Nc1ncc(Cl)c(Nc2ccccc2S(=O)(=O)C(C)C)n1` [TAE-684, reference compound], the “viability of BMDCs (in words)” value [4] is reported as “reduced viability”.
For `Cc1ccc(NC(=O)c2ccc(CN3CCN(C)CC3)cc2)cc1Nc1nccc(-c2cccnc2)n1` [imatinib, reference compound], the “effect on IL-10 production by BMDCs (in words)” value [5] was “did not up-regulate IL-10 production” and the “viability of BMDCs (in words)” value [4] was “non-toxic”.
With `Cc1c[nH]c(-c2cnc(NCCNc3ccc(C#N)cn3)nc2-c2ccc(Cl)cc2Cl)n1` [CHIR-99021, reference compound] the “maximum effect on IL-10 production” value ([5]; zymosan-stimulated BMDCs, hit criterion) was > 30 % of the PGE2 response and the “viability of BMDCs (in words)” value [4] was “reduced viability”.
For `COc1cc(Nc2c(C#N)cnc3cc(OCCCN4CCN(C)CC4)c(OC)cc23)c(Cl)cc1Cl` [bosutinib, reference compound], the “viability of BMDCs (in words)” value [4] was “reduced viability”.
For `CCCCC[C@H](O)/C=C/[C@H]1[C@H](O)CC(=O)[C@@H]1C/C=C\CCCC(=O)O` [PGE2, prostaglandin E2, reference compound], the “effect on IL-10 production by BMDCs (in words)” value [5] was “increased levels of IL-10”, the “IL-10 mRNA levels” value [6] was “robustly enhanced” and the “abundance of Arg1 and Nos2 transcripts” value [6] was “highly induced”. For the same compound, the IL-10 secretion ([7]; BMDCs pre-treated, LPS, R848 or zymosan 18 hr) was “similarly induced”, the IL-1β production ([7]; BMDCs, stimulation with R848 or zymosan) was “enhanced” and the NO production ([7]; BMDCs, zymosan stimulation, relative to HG-9-91-01-treated) was “increased NO production”.
For `CN1CCN(CCOc2cc(OC3CCOCC3)c3c(Nc4c(Cl)ccc5c4OCO5)ncnc3c2)CC1` [saracatinib, reference compound], the “viability of BMDCs (in words)” value [4] was “reduced viability”.
For `Cc1cccc(C)c1OC(=O)N1C/C=C/COCc2cc(ccc2OCCN2CCC(O)CC2)Nc2nccc1n2` [I-4], the IC50 [2] was 93.8 nM, the IC50 [3] was 409 nM and the EC50 ([5]; zymosan-stimulated BMDCs) was 10.5 µM. For the same compound, the EC50 [4] was 5 µM.
